Reference: article PMC5556109, “A combinatorial approach for the discovery of cytochrome P450 2D6 inhibitors from nature” (Scientific Reports, 2017)
Like-named read-outs stand apart in the source and are kept apart here.

Key:
CYP2D6 = CYP2D6 (Homo sapiens, UniProt P10635); assay: P450-Glo CYP2D6 inhibition assay (bioluminescence-based; pre-screen at 100 µM and IC50 determination); settings: for classification of CYP2D6 inhibition (actives / weak actives / inactives): ranked by IC50, inactives from pre-screen at 100 µM
Method: Their CYP2D6 inhibitory potential was determined at a concentration of 100 µM in a final reaction volume of 50 µl. […] All compounds were dissolved in DMSO and the concentration thereof in the final reaction volume was 1%, according to the limitations indicated in the manufacturer’s protocol. […] To take into account the background luminescence, which may derive from a non-enzymatic conversion of ME-luciferin-EGE to luciferin, we included a ‘minus P450’ control that contained no CYP2D6 enzyme. In order to quantify CYP2D6 activity, we subtracted background values prior to calculating the percentage of total luminescence (% TL) obtained from the solvent control (set to 100%). Low % TL indicates low CYP2D6 activity.
In the three minus P450 control wells, 12.25 µl of the 4× reaction mixture was added. […] The plate was incubated for 10 minutes. The CYP2D6 enzyme reaction was initiated by the addition of 25 µl of 2× NADPH regeneration system (2.6 mM NADP^+, 6.6 mM glucose-6-phosphate, 6.6 mM MgCl2 and 0.8 U/ml glucose-6-phosphate dehydrogenase buffered in 0.1 mM sodium citrate at pH 5.5; Promega). After 45 minutes incubation, the enzyme reaction was stopped by the addition of 50 µl of the luciferin detection reagent, which contained also the esterase for the generation of the luminescence signal. The plate was incubated in the dark for 20 minutes in order to stabilize the signal measured by a Tecan infinite F200 PRO plate reader. […] The maximum allowed DMSO concentration in the final reaction mix was 1% according to the manufacturer’s protocol. The experiment was performed at room temperature and under prevention of excessive UV-light at minimum on two independent days (n = 2).
Concentration-dependent CYP2D6 inhibition assays were performed by preparing a 5-step dilution series of the 400 µM compound solutions. […] After this dilution step, 12.5 µl of each dilution was transferred to the assay plate. The assay was performed as described above. The DMSO concentration was kept constant for all concentrations with a maximum of 1%. The experiments were performed on three independent experimental days (n = 3).
(§1) Raw data obtained from Tecan infinite F200 PRO plate reader was processed by calculating total luminescence (% of untreated control) by applying the formula: raw data − (background luminescence) * 100/mean of negative control.

[1] = test system: P450-Glo detection reaction (unspecific esterase and modified firefly-luciferase); assay: P450-Glo detection reaction control (luciferin-EGE, esterase, luciferase, test compound, no CYP2D6); settings: for P450-Glo Detection Reaction MEAN Diff. (inhibition of the detection reaction) / P450-Glo Detection Reaction MEAN (total luminescence): 50 µM test compound; for P450-Glo Detection Reaction MEAN Diff. (inhibition of the detection reaction): difference to DMSO 1% control; for P450-Glo Detection Reaction MEAN (total luminescence): no CYP2D6, DMSO control = 100; for p < 0.05 (significant inhibition of the P450-Glo detection reaction): 50 µM, one-way ANOVA, Dunnett's test vs DMSO control
From the text: This detection-reagent consists of i) a detergent that stops the CYP2D6 enzyme reaction, ii) an unspecific esterase that continuously releases luciferin and iii) a modified firefly-luciferase, thus a stable luminogenic signal is generated, which can be quantified by a luminometer (Fig. 1). The detection reaction is incorporated in the P450-Glo CYP2D6 inhibition assay. However, we implemented additional controls for unspecific interactions of the test compounds with the detection reaction. For this purpose, the previously established luminescence quenching control reaction reported by Modarai et al.[9] was adapted to our requirements with modifications for the use of larger sample volumes. In addition, Modarai et al. converted ME-luciferin-EGE to luciferin in the absence of a test compound and then evaluated the inhibition of the luciferase reaction.We conducted the control step by using pure luciferin-EGE, esterase, luciferase and a test compound in the absence of CYP2D6 (Supplementary Table S4).
The quantification of the P450-Glo detection reaction was performed by subtracting the background values prior to calculating the percentage of total luminescence (% TL) based on the total luminescence obtained from the solvent control (set to 100%).
We then added 12.5 µl 4× reaction mixture (5 µl 1.5 mM luciferin-EGE stock solution, 500 µl 1 M KPO4 buffer and 745 µl luciferase free water) to the wells. Finally, 25 µl of the 2× NADPH regeneration system was added. In order to initiate the detection reaction, 50 µl of the reconstituted luciferin detection reagent containing the esterase was added to the samples, positive and solvent control wells. This step was followed by 20 minutes incubation in the dark for signal stabilization. In the wells reserved for background luminescence, luciferase-free water was added. Measurements were performed on a Tecan infinite F200 PRO plate reader on two independent days (n = 2) at minimum.
as §1
A one-way ANOVA followed by Dunnett’s multiple comparisons test was performed. […] A p-value of < 0.05 was used to indicate significance.

[2] = IC50, P450-Glo CYP2D6 Inhibition Assay, recombinant human CYP2D6, 6 concentrations (compound 18: 4), n = 3

Chain of CYP2D6 (P10635 whole entry): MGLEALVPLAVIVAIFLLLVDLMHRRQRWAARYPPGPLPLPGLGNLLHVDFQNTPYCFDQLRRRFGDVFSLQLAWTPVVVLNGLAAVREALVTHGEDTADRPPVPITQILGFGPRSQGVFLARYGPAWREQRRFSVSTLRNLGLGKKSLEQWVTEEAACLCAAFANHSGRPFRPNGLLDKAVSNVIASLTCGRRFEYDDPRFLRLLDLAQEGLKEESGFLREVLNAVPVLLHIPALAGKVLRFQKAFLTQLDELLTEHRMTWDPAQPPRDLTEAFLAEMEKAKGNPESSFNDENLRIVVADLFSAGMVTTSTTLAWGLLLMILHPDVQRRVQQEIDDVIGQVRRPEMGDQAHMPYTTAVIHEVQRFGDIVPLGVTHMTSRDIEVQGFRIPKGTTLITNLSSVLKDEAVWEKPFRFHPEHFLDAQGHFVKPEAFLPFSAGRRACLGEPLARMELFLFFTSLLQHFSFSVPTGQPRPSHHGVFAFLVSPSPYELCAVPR

CCC1=CC2CN3CCc4c([nH]c5ccccc45)C(C(=O)OC)(C2)C13 (single isomer, unassigned; (+)) [Compound 7, (+)-Catharanthine]
IC50 (CYP2D6): 582 nM
classification of CYP2D6 inhibition (actives / weak actives / inactives) (CYP2D6): actives (those compounds were classified as active, which exhibited CYP2D6 IC50 values up to 10 µM)
P450-Glo Detection Reaction MEAN Diff. (inhibition of the detection reaction) [1]: 6.41%
P450-Glo Detection Reaction MEAN (total luminescence) [1]: 93.59 % TL
p < 0.05 (significant inhibition of the P450-Glo detection reaction) [1]: Yes

CC=C1C2CCN3CCC4(C(=C2C(=O)OC)Nc2ccccc24)C13 (single isomer, unassigned; (+)) [Compound 17, (+)-Condylocarpine]
IC50 (CYP2D6): 8160 nM
classification of CYP2D6 inhibition (actives / weak actives / inactives) (CYP2D6): actives (those compounds were classified as active, which exhibited CYP2D6 IC50 values up to 10 µM)
P450-Glo Detection Reaction MEAN Diff. (inhibition of the detection reaction) [1]: 7.34%
P450-Glo Detection Reaction MEAN (total luminescence) [1]: 92.66 % TL
p < 0.05 (significant inhibition of the P450-Glo detection reaction) [1]: Yes

COc1ccc(CC2c3cc(O)c(OC)cc3CCN2C)cc1O (single isomer, unassigned; (+)) [Compound 19, (+)-Reticuline]
IC50 (CYP2D6): 54.7 nM
classification of CYP2D6 inhibition (actives / weak actives / inactives) (CYP2D6): actives (those compounds were classified as active, which exhibited CYP2D6 IC50 values up to 10 µM)
P450-Glo Detection Reaction MEAN Diff. (inhibition of the detection reaction) [1]: 1.06%
P450-Glo Detection Reaction MEAN (total luminescence) [1]: 98.94 % TL
p < 0.05 (significant inhibition of the P450-Glo detection reaction) [1]: No

COC(=O)C1CC23C=CCN4CCC5(c6ccccc6NC15CC2)C43 (single isomer, unassigned; (-)) [Compound 10, (-)-Venalstonine]
P450-Glo Detection Reaction MEAN Diff. (inhibition of the detection reaction) [1]: 3.66%
P450-Glo Detection Reaction MEAN (total luminescence) [1]: 96.34 % TL
p < 0.05 (significant inhibition of the P450-Glo detection reaction) [1]: No

COC(=O)N1c2ccccc2C23C4CN5CCCC6(CCC12C(O)(C6)C4=O)C53 (single isomer, unassigned; (-)) [Compound 16, (-)-Kopsine]
P450-Glo Detection Reaction MEAN Diff. (inhibition of the detection reaction) [1]: 10.30%
P450-Glo Detection Reaction MEAN (total luminescence) [1]: 89.70 % TL
p < 0.05 (significant inhibition of the P450-Glo detection reaction) [1]: Yes

COC(=O)C1=CO[C@@H](C)[C@@H]2CN3CC[C@]4(C(=O)Nc5ccccc54)[C@@H]3C[C@H]12 [Compound 1, Pteropodine]
IC50 (CYP2D6): 33800 nM
classification of CYP2D6 inhibition (actives / weak actives / inactives) (CYP2D6): weak actives
P450-Glo Detection Reaction MEAN Diff. (inhibition of the detection reaction) [1]: 7.50%
P450-Glo Detection Reaction MEAN (total luminescence) [1]: 92.50 % TL
p < 0.05 (significant inhibition of the P450-Glo detection reaction) [1]: Yes

COc1ccc2c(c1OC)CN1CCc3cc4c(cc3C1C2C)OCO4 (stereo not drawn) [Compound 3, Thalictrivacine]
IC50 (CYP2D6; [2]): 5140 nM
classification of CYP2D6 inhibition (actives / weak actives / inactives) (CYP2D6): actives (those compounds were classified as active, which exhibited CYP2D6 IC50 values up to 10 µM)
P450-Glo Detection Reaction MEAN Diff. (inhibition of the detection reaction) [1]: 8.23%
P450-Glo Detection Reaction MEAN (total luminescence) [1]: 91.77 % TL
p < 0.05 (significant inhibition of the P450-Glo detection reaction) [1]: Yes

O=C(NCCCCNCCCNC(=O)c1ccc(O)c(O)c1)c1ccc(O)c(O)c1 [Compound 4, Pistillarin]
P450-Glo Detection Reaction MEAN Diff. (inhibition of the detection reaction) [1]: 13.61%
P450-Glo Detection Reaction MEAN (total luminescence) [1]: 86.39 % TL
p < 0.05 (significant inhibition of the P450-Glo detection reaction) [1]: Yes

O=C(O)c1ccccc1-n1ccc2c([nH]c3ccccc32)c1=O [Compound 5, Secofascaplysic acid]
IC50 (CYP2D6): 50400 nM
classification of CYP2D6 inhibition (actives / weak actives / inactives) (CYP2D6): weak actives
P450-Glo Detection Reaction MEAN Diff. (inhibition of the detection reaction) [1]: 20.46%
P450-Glo Detection Reaction MEAN (total luminescence) [1]: 79.54 % TL
p < 0.05 (significant inhibition of the P450-Glo detection reaction) [1]: Yes

COC(=O)C1C(O)CCC2C[N+]3(C)CCc4c([nH]c5cccc(OC)c45)C3CC21 (stereo not drawn) [Compound 8, Venenatine methiodide]
IC50 (CYP2D6): 4600 nM
classification of CYP2D6 inhibition (actives / weak actives / inactives) (CYP2D6): actives (those compounds were classified as active, which exhibited CYP2D6 IC50 values up to 10 µM)
P450-Glo Detection Reaction MEAN Diff. (inhibition of the detection reaction) [1]: 9.14%
P450-Glo Detection Reaction MEAN (total luminescence) [1]: 90.86 % TL
p < 0.05 (significant inhibition of the P450-Glo detection reaction) [1]: Yes

COc1ccc(C[C@@H]2NCCc3cc(OC)c(O)cc32)cc1O [Compound 9, (S)-Norreticuline]
IC50 at 45 min (CYP2D6; human, recombinant human CYP2D6 baculosomes, pH 7.4, probe ME-luciferin-EGE): 63.6 nM
classification of CYP2D6 inhibition (actives / weak actives / inactives) (CYP2D6): actives (those compounds were classified as active, which exhibited CYP2D6 IC50 values up to 10 µM)
P450-Glo Detection Reaction MEAN Diff. (inhibition of the detection reaction) [1]: 7.64%
P450-Glo Detection Reaction MEAN (total luminescence) [1]: 92.36 % TL
p < 0.05 (significant inhibition of the P450-Glo detection reaction) [1]: Yes

COc1ccc(C[C@H]2c3cc(OC)c(OC)cc3CCN2C)cc1O [Compound 11, (+)-Laudanidine]
IC50 (CYP2D6): 380 nM
classification of CYP2D6 inhibition (actives / weak actives / inactives) (CYP2D6): actives (those compounds were classified as active, which exhibited CYP2D6 IC50 values up to 10 µM)
P450-Glo Detection Reaction MEAN Diff. (inhibition of the detection reaction) [1]: 5.86%
P450-Glo Detection Reaction MEAN (total luminescence) [1]: 94.14 % TL
p < 0.05 (significant inhibition of the P450-Glo detection reaction) [1]: Yes

COc1cc2c(cc1OC)C1Cc3cc(O)c(O)cc3CN1CC2 (stereo not drawn) [Compound 14, Spinosine]
IC50 (CYP2D6): 117 nM
classification of CYP2D6 inhibition (actives / weak actives / inactives) (CYP2D6): actives (those compounds were classified as active, which exhibited CYP2D6 IC50 values up to 10 µM)
P450-Glo Detection Reaction MEAN Diff. (inhibition of the detection reaction) [1]: 4.73%
P450-Glo Detection Reaction MEAN (total luminescence) [1]: 95.27 % TL
p < 0.05 (significant inhibition of the P450-Glo detection reaction) [1]: Yes

COc1ccc(/C=C\c2cc(OC)c(OC)cc2CCN(C)C)cc1 [Compound 15, Des-N,O-dimethylarmepavine]
IC50 (CYP2D6): 198 nM
classification of CYP2D6 inhibition (actives / weak actives / inactives) (CYP2D6): actives (those compounds were classified as active, which exhibited CYP2D6 IC50 values up to 10 µM)
P450-Glo Detection Reaction MEAN Diff. (inhibition of the detection reaction) [1]: 6.23%
P450-Glo Detection Reaction MEAN (total luminescence) [1]: 93.77 % TL
p < 0.05 (significant inhibition of the P450-Glo detection reaction) [1]: Yes

COc1cc2c(cc1O)-c1c(O)c(OC)cc3c1[C@H](C2)N(C)CC3 [Compound 18, Bracteoline]
IC50 (CYP2D6): 2110 nM
classification of CYP2D6 inhibition (actives / weak actives / inactives) (CYP2D6): actives (those compounds were classified as active, which exhibited CYP2D6 IC50 values up to 10 µM)
P450-Glo Detection Reaction MEAN Diff. (inhibition of the detection reaction) [1]: 12.30%
P450-Glo Detection Reaction MEAN (total luminescence) [1]: 87.70 % TL
p < 0.05 (significant inhibition of the P450-Glo detection reaction) [1]: Yes

COC1=C[C@]23CCN(C)[C@H](Cc4ccc(OC)c(O)c42)C3=CC1=O [Compound 20, (+)-Salutaridine]
IC50 (CYP2D6): 24000 nM
classification of CYP2D6 inhibition (actives / weak actives / inactives) (CYP2D6): weak actives
P450-Glo Detection Reaction MEAN Diff. (inhibition of the detection reaction) [1]: 2.94%
P450-Glo Detection Reaction MEAN (total luminescence) [1]: 97.06 % TL
p < 0.05 (significant inhibition of the P450-Glo detection reaction) [1]: No

CC[C@]12C=CCN3CC[C@]4(C(=C(C(=O)OC)C1)Nc1ccccc14)[C@@H]32 [Compound 22, Tabersonine]
IC50 (CYP2D6; [2]): 419 nM
classification of CYP2D6 inhibition (actives / weak actives / inactives) (CYP2D6): actives (those compounds were classified as active, which exhibited CYP2D6 IC50 values up to 10 µM)
P450-Glo Detection Reaction MEAN (total luminescence) [1]: 104.20 % TL
p < 0.05 (significant inhibition of the P450-Glo detection reaction) [1]: Yes

COC(=O)C1=CO[C@@H](C)[C@H]2CN3CC[C@@]4(C(=O)Nc5ccccc54)[C@@H]3C[C@H]12 [Compound 23, Isomitraphylline]
P450-Glo Detection Reaction MEAN Diff. (inhibition of the detection reaction) [1]: 0.59%
P450-Glo Detection Reaction MEAN (total luminescence) [1]: 99.41 % TL
p < 0.05 (significant inhibition of the P450-Glo detection reaction) [1]: No
